Test results reported in publication PMC7413516, “Antidepressant-like activity and safety profile evaluation of 1H-imidazo[2,1-f]purine-2,4(3H,8H)-dione derivatives as 5-HT1A receptor partial agonists” (PLoS ONE, 2020).
Values joined by “and” are separate entries in the source; they are usually repeats but may differ in a detail not shown here. Equal values may be shown once. Read-outs that look alike come from different tables or passages of the source.

Test: Pharmacokinetic study in mice, plasma and brain structures, LC/MS/MS
Format: in vivo, Swiss albino mice
Conditions: 1.25 mg/kg i.p.; for Kp: ratio of AUC values
Protocol: Blood samples from the Swiss albino mice were collected at 0 (pre-dose), 5, 15, 30, 60, 120, 240 and 480 min after a compound administration. The blood samples and brain structures were collected under general anesthesia induced by i.p. injection of 50 mg/kg ketamine plus 8 mg/kg xylazine. The blood samples were taken into heparinized tubes, immediately centrifuged at 1000 × g for 10 min, and plasma was collected. The plasma samples and brain structures were immediately frozen at -30°C and -80°C, respectively.
The plasma and tissue sample pretreatment procedure involved acetonitrile precipitation. A 5 μL aliquot of the IS working solution (100 ng/mL) was added to 50 μL of the collected mouse plasma sample, which was then vortex-mixed for 10 seconds. Thereafter, 200 μL of acetonitrile was added, vortexed during 20 min, and then centrifuged (1000 × g, 10 min). The supernatant (100 μL) was then transferred to insert placed in an autosampler vial, and a 10 μL volume of this was injected onto the HPLC column. Tissue samples were thawed before use, and whole hippocampus, striatum and frontal cortex were weighted and placed in a glass mortar and pestle tissue grinder and homogenized with an appropriate amount of phosphate buffer (pH 7.4) in 1:5 ratio. Afterward, 50 μL of tissue homogenates were transferred to new Eppendorf tubes and spiked with 5 μL of the internal standard working solution. All samples were stored on ice during the preparation process. This was followed by procedures like those described above.
The LC/ESI-MS/MS experiments were performed on an Applied Biosystems/MDS Sciex (Concord, Ontario, Canada) API 2000 triple quadrupole mass spectrometer equipped with an electrospray (ESI) ionization interface. This instrument was coupled to an Agilent 1100 (Agilent Technologies, Waldbronn, Germany) LC system. Data acquisition and processing were accomplished using Sciex Analyst 1.4.2 data collection and integration software.
An XBridge C18 (2.1 x 30 mm, 3.5 μm) analytical column (Waters, Milford, Massachusetts, USA) was used for compound separation. The temperatures of the column thermostat and the autosampler were set at 25°C and 10°C, respectively. The mobile phase consisted of a mixture of acetonitrile with addition of 0.1% formic acid (solvent A) and water with addition of 0.1% formic acid (solvent B) and was set at a flow rate of 0.6 mL/min. Starting amount of solvent A is 10%, isocratic elution from 0 to 3 min, and then gradient up to 90% of solvent A, and maintained to 10 min, and then gradient down to 10% of solvent A, and maintained to 15 min.
The ion source parameters were as follows: ion spray voltage: 5500 V; nebulizer gas (gas 1): 20 psi; turbo gas (gas 2): 25 psi; temperature of the heated nebulizer: 400°C; curtain gas: 40 psi; collision gas: 6 psi. Mass spectra were acquired by SRM with precursor/predominant product ion transitions for each analyte. The mass spectral Q1→Q3 transitions monitored for AZ-853, AZ-861 and for IS (nebivolol), were m/z 453.9→235.1; 504.3→285.1 and 406.2→151.1, respectively. The peak widths of precursor and product ions were set to 0.7 full width half-height. Quantification was done via peak area ratio.
Pharmacokinetic parameters were calculated by a non-compartmental approach from the average concentration values, using Phoenix WinNonlin software (Certara, Princeton, NJ 08540 USA). First order elimination rate constant (λz) was calculated by linear regression of time versus log concentration. Next, the area under the mean serum and tissue concentration versus time curve (AUC0→t) was estimated using the log-linear trapezoidal rule (1), where Ci is the plasma concentration measured at t1.
AUC0→t=∑i=1n((Ci+Ci+1)/2)∙(ti+1−ti). (1)
Area under the first-moment curve (AUMC0→t) was estimated by calculation of the total area under the first-moment curve using the Eq (2), where Ci is the plasma concentration measured at t1. AUMC0→t=∑i=1n((ti∙Ci+ti+1∙Ci+1)/2)∙(ti+1−ti). […]

t0.5: ca. 1.5 h | t0.5, frontal cortex: 91.6 min | t0.5, hippocampus: 110.4 min | t0.5, striatum: 83 min | t0.5, plasma (1.25 mg/kg): 97 min and 97.5 min | Concentration, plasma (individual animals) (5 min, 1.25 mg/kg): 45.82 ng/mL | Vd/F (plasma, 1.25 mg/kg): 83 L/kg and 83.4 L/kg | Kp (Swiss albino, mouse, frontal cortex, ip, read-out: Brain structure-to-plasma concentration ratio, frontal cortex (FC/P)): 10.5 | AUC(0-t) (Swiss albino, mouse, frontal cortex, ip, read-out: AUC0→t, frontal cortex (converted)): 363 ng·h/mL | MRT (Swiss albino, mouse, frontal cortex, ip, read-out: MRT, frontal cortex (converted)): 1.54 h | concentration at 5 min (Swiss albino, mouse, frontal cortex, ip, 1.25 mg/kg, 5 min, read-out: Concentration, frontal cortex (Mean)): 355 ng/mL | concentration at 5 min (Swiss albino, mouse, frontal cortex, ip, 1.25 mg/kg, 5 min, read-out: Concentration, frontal cortex (individual animals)): 408 ng/mL | concentration at 15 min (Swiss albino, mouse, frontal cortex, ip, 1.25 mg/kg, 15 min, read-out: Concentration, frontal cortex (Mean)): 251 ng/mL | concentration at 15 min (Swiss albino, mouse, frontal cortex, ip, 1.25 mg/kg, 15 min, read-out: Concentration, frontal cortex (individual animals)): 233 ng/mL | concentration at 30 min (Swiss albino, mouse, frontal cortex, ip, 1.25 mg/kg, 30 min, read-out: Concentration, frontal cortex (Mean)): 201 ng/mL | concentration at 30 min (Swiss albino, mouse, frontal cortex, ip, 1.25 mg/kg, 30 min, read-out: Concentration, frontal cortex (individual animals)): 209 ng/mL | concentration at 60 min (Swiss albino, mouse, frontal cortex, ip, 1.25 mg/kg, 60 min, read-out: Concentration, frontal cortex (Mean)): 95.8 ng/mL | concentration at 60 min (Swiss albino, mouse, frontal cortex, ip, 1.25 mg/kg, 60 min, read-out: Concentration, frontal cortex (individual animals)): 104 ng/mL | concentration at 120 min (Swiss albino, mouse, frontal cortex, ip, 1.25 mg/kg, 120 min, read-out: Concentration, frontal cortex (Mean)): 41 ng/mL | concentration at 120 min (Swiss albino, mouse, frontal cortex, ip, 1.25 mg/kg, 120 min, read-out: Concentration, frontal cortex (individual animals)): 40.3 ng/mL | concentration at 240 min (Swiss albino, mouse, frontal cortex, ip, 1.25 mg/kg, 240 min, read-out: Concentration, frontal cortex (Mean)): 12.8 ng/mL | concentration at 240 min (Swiss albino, mouse, frontal cortex, ip, 1.25 mg/kg, 240 min, read-out: Concentration, frontal cortex (individual animals)): 9.95 ng/mL | concentration at 480 min (Swiss albino, mouse, frontal cortex, ip, 1.25 mg/kg, read-out: Concentration, frontal cortex (Mean)): 2.98 ng/mL | concentration at 480 min (Swiss albino, mouse, frontal cortex, ip, 1.25 mg/kg, read-out: Concentration, frontal cortex (individual animals)): 1.96 ng/mL | Cmax (Swiss albino, mouse, frontal cortex, ip, 1.25 mg/kg, read-out: Cmax, frontal cortex): 355 ng/g | Tmax (Swiss albino, mouse, frontal cortex, ip, 1.25 mg/kg, read-out: tmax, frontal cortex (converted)): 5 min | Kp (Swiss albino, mouse, hippocampus, ip, read-out: Brain structure-to-plasma concentration ratio, hippocampus (H/P)): 12.6 | AUC(0-t) (Swiss albino, mouse, hippocampus, ip, read-out: AUC0→t, hippocampus (converted)): 436 ng·h/mL | MRT (Swiss albino, mouse, hippocampus, ip, read-out: MRT, hippocampus (converted)): 1.78 h | concentration at 5 min (Swiss albino, mouse, hippocampus, ip, 1.25 mg/kg, 5 min, read-out: Concentration, hippocampus (Mean)): 274 ng/mL
SMILES: Cn1c(=O)c2c(nc3n(CCCCN4CCN(c5cccc(C(F)(F)F)c5)CC4)ccn23)n(C)c1=O [AZ-861, 1,3-dimethyl-8-(4-(4-(3-(trifluoromethyl)phenyl)piperazin-1-yl)butyl)-1H-imidazo[2,1-f]purine-2,4(3H,8H)-dione]
Concentration, frontal cortex (individual animals) (15 min, 1.25 mg/kg): 230.57 ng/mL and 280.45 ng/mL and 263.78 ng/mL and 270.14 ng/mL and 226.47 ng/mL | Concentration, hippocampus (individual animals) (15 min, 1.25 mg/kg): 234.13 ng/mL and 378.52 ng/mL and 328.15 ng/mL and 322.19 ng/mL and 317.44 ng/mL | Concentration, plasma (individual animals) (15 min, 1.25 mg/kg): 44.70 ng/mL and 36.90 ng/mL and 42.80 ng/mL and 28.74 ng/mL and 38.15 ng/mL | Concentration, striatum (individual animals) (15 min, 1.25 mg/kg): 389.35 ng/mL and 271.77 ng/mL and 374.54 ng/mL and 325.44 ng/mL and 267.13 ng/mL | Concentration, frontal cortex (individual animals) (30 min, 1.25 mg/kg): 184.45 ng/mL and 218.78 ng/mL and 190.14 ng/mL and 183.24 ng/mL and 219.17 ng/mL | Concentration, hippocampus (individual animals) (30 min, 1.25 mg/kg): 192.35 ng/mL and 319.65 ng/mL and 217.19 ng/mL and 301.16 ng/mL and 245.19 ng/mL | Concentration, plasma (individual animals) (30 min, 1.25 mg/kg): 31.10 ng/mL and 30.60 ng/mL and 22.40 ng/mL and 15.17 ng/mL and 19.56 ng/mL and 30.17 ng/mL | Concentration, striatum (individual animals) (30 min, 1.25 mg/kg): 310.53 ng/mL and 258.57 ng/mL and 322.23 ng/mL and 318.66 ng/mL and 277.19 ng/mL | Concentration, frontal cortex (individual animals) (60 min, 1.25 mg/kg): 97.18 ng/mL and 109.15 ng/mL and 91.75 ng/mL and 83.56 ng/mL and 89.47 ng/mL | Concentration, hippocampus (individual animals) (60 min, 1.25 mg/kg): 110.60 ng/mL and 98.83 ng/mL and 88.50 ng/mL and 94.16 ng/mL and 88.17 ng/mL | Concentration, plasma (individual animals) (60 min, 1.25 mg/kg): 6.60 ng/mL and 4.60 ng/mL and 6.58 ng/mL and 5.72 ng/mL and 4.19 ng/mL | Concentration, striatum (individual animals) (60 min, 1.25 mg/kg): 69.53 ng/mL and 62.19 ng/mL and 51.27 ng/mL and 55.66 ng/mL and 48.45 ng/mL | Concentration, frontal cortex (individual animals) (120 min, 1.25 mg/kg): 41.78 ng/mL and 43.56 ng/mL and 39.11 ng/mL and 40.15 ng/mL and 41.18 ng/mL | Concentration, hippocampus (individual animals) (120 min, 1.25 mg/kg): 51.18 ng/mL and 56.82 ng/mL and 60.95 ng/mL and 47.42 ng/mL and 49.13 ng/mL | Concentration, plasma (individual animals) (120 min, 1.25 mg/kg): 2.36 ng/mL and 2.87 ng/mL and 3.33 ng/mL and 3.12 ng/mL and 1.97 ng/mL | Concentration, striatum (individual animals) (120 min, 1.25 mg/kg): 30.75 ng/mL and 29.92 ng/mL and 21.66 ng/mL and 19.44 ng/mL and 23.17 ng/mL | Concentration, frontal cortex (individual animals) (240 min, 1.25 mg/kg): 18.75 ng/mL and 10.56 ng/mL and 16.25 ng/mL and 9.48 ng/mL | Concentration, hippocampus (individual animals) (240 min, 1.25 mg/kg): 15.35 ng/mL and 24.14 ng/mL and 23.55 ng/mL and 16.56 ng/mL | Concentration, plasma (individual animals) (240 min, 1.25 mg/kg): 0.67 ng/mL and 0.70 ng/mL and 0.34 ng/mL and 0.41 ng/mL and 0.57 ng/mL and 0.66 ng/mL | Concentration, striatum (individual animals) (240 min, 1.25 mg/kg): 4.87 ng/mL and 5.95 ng/mL and 6.85 ng/mL and 4.94 ng/mL
